Experiment [1] addresses Prostaglandin G/H synthase 1 (Homo sapiens, UniProt P23219). The class given is functional.
Experiment [2] concerns the target Beta-2 adrenergic receptor (Homo sapiens, UniProt P07550).
The target of experiment [3] is Neuronal acetylcholine receptor subunit alpha-4 (Homo sapiens, UniProt P43681).
In another experiment the target is T1, Endothelin-1 receptor (Homo sapiens, UniProt P25101).
T1 sequence (P25101 whole entry): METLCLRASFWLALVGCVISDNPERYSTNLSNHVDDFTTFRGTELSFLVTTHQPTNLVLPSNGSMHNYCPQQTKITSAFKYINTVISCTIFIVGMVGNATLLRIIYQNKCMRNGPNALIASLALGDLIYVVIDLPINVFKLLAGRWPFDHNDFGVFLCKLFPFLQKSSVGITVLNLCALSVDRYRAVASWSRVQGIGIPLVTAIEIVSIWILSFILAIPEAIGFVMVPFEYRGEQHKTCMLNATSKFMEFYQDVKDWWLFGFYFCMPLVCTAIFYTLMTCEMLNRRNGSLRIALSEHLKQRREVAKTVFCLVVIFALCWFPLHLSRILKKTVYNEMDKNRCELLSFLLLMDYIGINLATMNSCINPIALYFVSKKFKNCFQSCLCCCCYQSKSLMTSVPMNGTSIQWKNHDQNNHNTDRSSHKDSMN

For experiment [4], the target named is T2, Muscarinic acetylcholine receptor M1 (Homo sapiens, UniProt P11229).
T2 sequence (P11229 whole entry): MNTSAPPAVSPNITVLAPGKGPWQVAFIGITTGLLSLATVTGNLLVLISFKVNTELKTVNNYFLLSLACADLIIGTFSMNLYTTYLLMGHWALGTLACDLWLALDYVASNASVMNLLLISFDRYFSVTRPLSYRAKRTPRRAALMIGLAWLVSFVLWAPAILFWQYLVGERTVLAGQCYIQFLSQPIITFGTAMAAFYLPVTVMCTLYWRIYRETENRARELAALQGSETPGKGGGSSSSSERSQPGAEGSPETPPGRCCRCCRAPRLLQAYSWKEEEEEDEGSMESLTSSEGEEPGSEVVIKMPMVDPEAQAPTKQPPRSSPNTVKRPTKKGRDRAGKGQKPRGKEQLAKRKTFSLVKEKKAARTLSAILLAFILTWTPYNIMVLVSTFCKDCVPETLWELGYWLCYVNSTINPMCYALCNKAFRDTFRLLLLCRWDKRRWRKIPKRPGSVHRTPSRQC
The class given is functional.

Experiment [5] has as its target T3, Type-1 angiotensin II receptor (Homo sapiens, UniProt P30556).
T3 sequence (P30556 whole entry): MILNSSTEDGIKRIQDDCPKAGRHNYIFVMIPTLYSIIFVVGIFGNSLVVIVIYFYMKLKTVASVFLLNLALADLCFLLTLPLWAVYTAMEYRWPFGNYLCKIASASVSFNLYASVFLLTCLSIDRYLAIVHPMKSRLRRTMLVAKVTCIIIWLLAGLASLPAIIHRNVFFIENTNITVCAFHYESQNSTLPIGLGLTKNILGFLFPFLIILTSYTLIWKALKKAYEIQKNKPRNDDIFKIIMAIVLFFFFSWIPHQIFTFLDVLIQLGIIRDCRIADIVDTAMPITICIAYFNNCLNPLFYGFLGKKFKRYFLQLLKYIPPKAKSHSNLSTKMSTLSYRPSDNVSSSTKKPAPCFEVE

Experiment [6] deals with 5-hydroxytryptamine receptor 2B (Homo sapiens, UniProt P41595). The class given is functional, cell-based.
Experiment [7] concerns the target T4, Alpha-2A adrenergic receptor (Homo sapiens, UniProt P08913).
T4 sequence (P08913 whole entry): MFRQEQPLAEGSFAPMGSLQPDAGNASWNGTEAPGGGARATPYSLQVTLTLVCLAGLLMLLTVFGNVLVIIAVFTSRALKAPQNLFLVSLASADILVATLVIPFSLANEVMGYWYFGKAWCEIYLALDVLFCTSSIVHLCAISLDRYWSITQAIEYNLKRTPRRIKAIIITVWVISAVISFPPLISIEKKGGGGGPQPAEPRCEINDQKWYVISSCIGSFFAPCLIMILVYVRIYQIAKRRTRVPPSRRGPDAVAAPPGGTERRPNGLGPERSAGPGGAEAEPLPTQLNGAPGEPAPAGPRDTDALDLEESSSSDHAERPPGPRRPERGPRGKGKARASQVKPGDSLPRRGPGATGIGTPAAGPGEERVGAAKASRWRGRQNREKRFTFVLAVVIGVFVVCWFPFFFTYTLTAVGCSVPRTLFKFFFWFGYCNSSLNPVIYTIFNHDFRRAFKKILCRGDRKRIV
The class given is functional, cell-based.

Experiment [8] has as its target 5-hydroxytryptamine receptor 2A (Homo sapiens, UniProt P28223). In kind it is functional, cell-based.
Experiment [9] addresses Sodium-dependent dopamine transporter (Homo sapiens, UniProt Q01959).
The target in the next experiment is T5, Estrogen receptor (Homo sapiens, UniProt P03372).
T5 sequence (P03372 whole entry): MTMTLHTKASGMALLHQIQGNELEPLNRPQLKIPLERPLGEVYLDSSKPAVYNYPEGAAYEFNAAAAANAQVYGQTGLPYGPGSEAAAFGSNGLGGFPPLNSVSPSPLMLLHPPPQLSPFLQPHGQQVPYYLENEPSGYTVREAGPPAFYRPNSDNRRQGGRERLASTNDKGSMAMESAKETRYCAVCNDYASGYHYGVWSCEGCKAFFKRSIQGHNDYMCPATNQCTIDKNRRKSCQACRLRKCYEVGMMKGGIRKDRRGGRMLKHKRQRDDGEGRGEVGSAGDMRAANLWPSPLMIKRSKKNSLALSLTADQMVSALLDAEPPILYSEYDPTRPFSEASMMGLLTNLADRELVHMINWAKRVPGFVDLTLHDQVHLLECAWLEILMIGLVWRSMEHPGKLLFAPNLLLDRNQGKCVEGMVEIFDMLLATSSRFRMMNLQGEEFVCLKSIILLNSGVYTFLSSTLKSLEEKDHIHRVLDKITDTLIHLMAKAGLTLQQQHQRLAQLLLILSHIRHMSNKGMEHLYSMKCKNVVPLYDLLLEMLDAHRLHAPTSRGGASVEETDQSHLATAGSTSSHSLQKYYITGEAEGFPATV

The target of experiment [10] is Gamma-aminobutyric acid receptor subunit alpha-1 (Rattus norvegicus, UniProt P62813).

Where only a bound is given, the exact number is not on record here.
Note: assay procedure not described here.

Sequence of 5-hydroxytryptamine receptor 2A (P28223 whole entry): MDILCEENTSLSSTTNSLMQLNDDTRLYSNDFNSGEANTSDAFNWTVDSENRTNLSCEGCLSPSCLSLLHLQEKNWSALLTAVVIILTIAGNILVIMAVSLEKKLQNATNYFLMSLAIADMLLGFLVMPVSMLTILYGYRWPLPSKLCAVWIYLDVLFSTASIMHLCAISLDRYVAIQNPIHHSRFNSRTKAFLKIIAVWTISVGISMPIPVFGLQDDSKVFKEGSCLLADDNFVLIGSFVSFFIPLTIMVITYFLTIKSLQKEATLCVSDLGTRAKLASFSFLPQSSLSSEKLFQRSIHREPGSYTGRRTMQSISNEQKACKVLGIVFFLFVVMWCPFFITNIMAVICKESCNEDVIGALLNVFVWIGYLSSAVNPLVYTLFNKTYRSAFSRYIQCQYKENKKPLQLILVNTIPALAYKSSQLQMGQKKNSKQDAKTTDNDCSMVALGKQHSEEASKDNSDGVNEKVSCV
Sequence of 5-hydroxytryptamine receptor 2B (P41595 whole entry): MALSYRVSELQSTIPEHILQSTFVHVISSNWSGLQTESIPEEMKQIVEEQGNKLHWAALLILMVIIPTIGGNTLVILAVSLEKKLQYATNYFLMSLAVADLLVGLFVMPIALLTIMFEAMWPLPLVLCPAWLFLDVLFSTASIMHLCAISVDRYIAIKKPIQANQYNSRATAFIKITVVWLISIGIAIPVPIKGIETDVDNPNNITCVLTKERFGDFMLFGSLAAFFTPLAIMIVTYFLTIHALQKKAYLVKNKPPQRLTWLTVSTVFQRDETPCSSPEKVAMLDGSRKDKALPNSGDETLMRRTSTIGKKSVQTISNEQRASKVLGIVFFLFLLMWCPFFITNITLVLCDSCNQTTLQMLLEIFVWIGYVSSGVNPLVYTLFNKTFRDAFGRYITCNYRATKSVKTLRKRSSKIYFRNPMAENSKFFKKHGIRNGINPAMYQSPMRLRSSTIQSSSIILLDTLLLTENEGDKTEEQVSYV
Sequence of Neuronal acetylcholine receptor subunit alpha-4 (P43681 whole entry): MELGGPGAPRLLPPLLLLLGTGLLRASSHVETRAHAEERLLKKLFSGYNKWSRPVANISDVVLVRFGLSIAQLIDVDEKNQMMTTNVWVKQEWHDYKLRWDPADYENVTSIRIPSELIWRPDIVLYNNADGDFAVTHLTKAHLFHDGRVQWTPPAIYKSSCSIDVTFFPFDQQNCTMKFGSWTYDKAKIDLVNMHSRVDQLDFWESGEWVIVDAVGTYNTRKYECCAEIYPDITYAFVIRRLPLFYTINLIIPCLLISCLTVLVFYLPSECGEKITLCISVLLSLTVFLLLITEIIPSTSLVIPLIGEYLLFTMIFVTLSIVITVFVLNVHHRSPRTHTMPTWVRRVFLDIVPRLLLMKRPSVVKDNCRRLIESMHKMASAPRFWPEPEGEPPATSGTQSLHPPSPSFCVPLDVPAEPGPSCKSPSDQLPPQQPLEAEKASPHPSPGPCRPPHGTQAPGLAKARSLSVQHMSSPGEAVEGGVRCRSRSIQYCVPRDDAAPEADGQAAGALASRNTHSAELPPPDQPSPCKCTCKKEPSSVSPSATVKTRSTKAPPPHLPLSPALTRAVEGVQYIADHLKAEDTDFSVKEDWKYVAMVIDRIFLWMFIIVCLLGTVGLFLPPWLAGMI
Sequence of Sodium-dependent dopamine transporter (Q01959 whole entry): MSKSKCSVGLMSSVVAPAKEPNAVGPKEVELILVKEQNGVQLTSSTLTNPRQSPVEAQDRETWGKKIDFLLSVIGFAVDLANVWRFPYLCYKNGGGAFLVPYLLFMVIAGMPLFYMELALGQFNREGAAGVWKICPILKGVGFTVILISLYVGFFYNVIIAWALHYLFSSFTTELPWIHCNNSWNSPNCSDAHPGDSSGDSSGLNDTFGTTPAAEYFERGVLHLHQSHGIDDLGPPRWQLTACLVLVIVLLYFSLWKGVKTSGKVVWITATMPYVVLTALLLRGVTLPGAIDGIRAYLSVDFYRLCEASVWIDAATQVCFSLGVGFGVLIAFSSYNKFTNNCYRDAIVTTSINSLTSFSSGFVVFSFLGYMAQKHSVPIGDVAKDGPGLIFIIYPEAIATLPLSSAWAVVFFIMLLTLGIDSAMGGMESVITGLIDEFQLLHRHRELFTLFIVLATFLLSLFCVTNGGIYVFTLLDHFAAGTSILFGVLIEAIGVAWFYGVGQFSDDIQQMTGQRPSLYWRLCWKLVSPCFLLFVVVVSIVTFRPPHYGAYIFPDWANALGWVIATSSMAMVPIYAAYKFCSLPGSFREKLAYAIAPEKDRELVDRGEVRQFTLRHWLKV
Sequence of Gamma-aminobutyric acid receptor subunit alpha-1 (P62813 whole entry): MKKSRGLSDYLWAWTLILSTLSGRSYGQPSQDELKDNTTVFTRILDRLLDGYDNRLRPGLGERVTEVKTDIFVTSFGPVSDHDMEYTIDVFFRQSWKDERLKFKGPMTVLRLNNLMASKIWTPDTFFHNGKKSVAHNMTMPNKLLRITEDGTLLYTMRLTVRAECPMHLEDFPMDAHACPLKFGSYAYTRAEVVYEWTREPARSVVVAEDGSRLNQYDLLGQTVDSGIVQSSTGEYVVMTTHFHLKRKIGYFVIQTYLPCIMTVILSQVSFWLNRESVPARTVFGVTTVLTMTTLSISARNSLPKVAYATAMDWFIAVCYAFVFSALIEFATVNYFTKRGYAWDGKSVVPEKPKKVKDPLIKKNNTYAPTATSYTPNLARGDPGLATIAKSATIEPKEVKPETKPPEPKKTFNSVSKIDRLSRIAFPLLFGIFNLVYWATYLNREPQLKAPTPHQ
Sequence of Prostaglandin G/H synthase 1 (P23219 whole entry): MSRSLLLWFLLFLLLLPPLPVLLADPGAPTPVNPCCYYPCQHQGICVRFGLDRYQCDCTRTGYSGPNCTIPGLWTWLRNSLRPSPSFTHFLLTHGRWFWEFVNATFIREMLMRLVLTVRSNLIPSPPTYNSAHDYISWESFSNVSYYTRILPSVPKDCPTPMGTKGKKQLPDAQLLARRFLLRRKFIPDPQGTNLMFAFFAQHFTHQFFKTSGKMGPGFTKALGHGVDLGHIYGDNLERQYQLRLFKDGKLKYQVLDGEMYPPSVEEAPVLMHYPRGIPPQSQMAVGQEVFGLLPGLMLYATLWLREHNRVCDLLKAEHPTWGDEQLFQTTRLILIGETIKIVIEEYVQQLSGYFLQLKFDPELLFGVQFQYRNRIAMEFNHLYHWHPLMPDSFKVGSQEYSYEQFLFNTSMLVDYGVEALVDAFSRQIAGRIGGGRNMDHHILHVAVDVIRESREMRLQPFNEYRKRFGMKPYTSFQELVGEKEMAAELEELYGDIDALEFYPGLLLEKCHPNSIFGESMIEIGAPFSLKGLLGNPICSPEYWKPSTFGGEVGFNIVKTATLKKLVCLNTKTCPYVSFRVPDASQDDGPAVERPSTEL

In the case of `CN(C)c1ccc(C(=C2C=CC(=[N+](C)C)C=C2)c2ccc(N(C)C)cc2)cc1` [GENTIAN VIOLET], in experiment [1], half-maximal activity (AC50) was put at 20.8 µM.

Regarding HYDROXOCOBALAMIN, the AC50 (in [2]; in [3]; at Endothelin-1 receptor; in [4]; in [5]; in experiment [6]) was above 30 µM each time. Besides, the AC50 (in experiment [7]; in experiment [8]; in [9]; at Estrogen receptor) was above 30 µM throughout.

Take `Nc1ccc(S(N)(=O)=O)cc1` [SULFANILAMIDE]: in experiment [10], the AC50 is above 30 µM.

The values are drawn from ChEMBL document CHEMBL5291721, “A preclinical secondary pharmacology resource illuminates target-adverse drug reaction associations of marketed drugs” (Nat Commun, 2023).
